Assay results: PubChem BioAssay (NCI)
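Where inhibition never reached the appropriate level, the endpoint shown equals the highest concentration tested. Otherwise, values were interpolated linearly from a five-concentration, 48-hour dose response in 96-well plates. TGI is the concentration that stops growth completely.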

How the values were obtained:
Test in all cases: NCI anticancer screen, dose series, 48 h
786-0 renal = system: 786-0 renal
A498 renal = system: A498 renal
A549 NSCLC = system: A549 NSCLC
ACHN renal = system: ACHN renal
BT-549 breast = system: BT-549 breast
CAKI-1 renal = system: CAKI-1 renal
CCRF-CEM leukemia = system: CCRF-CEM leukemia
COLO 205 colon = system: COLO 205 colon
DLD-1 colon = system: DLD-1 colon
DMS 114 small cell lung = system: DMS 114 small cell lung
DMS 273 small cell lung = system: DMS 273 small cell lung
DU-145 prostate = system: DU-145 prostate
EKVX NSCLC = system: EKVX NSCLC
HCC-2998 colon = system: HCC-2998 colon
HCT-116 colon = system: HCT-116 colon
HCT-15 colon = system: HCT-15 colon
HL-60(TB) leukemia = system: HL-60(TB) leukemia
HOP-18 NSCLC = system: HOP-18 NSCLC
HOP-62 NSCLC = system: HOP-62 NSCLC
HOP-92 NSCLC = system: HOP-92 NSCLC
HS 578T breast = system: HS 578T breast
HT29 colon = system: HT29 colon
IGROV1 ovarian = system: IGROV1 ovarian
K-562 leukemia = system: K-562 leukemia
KM12 colon = system: KM12 colon
KM20L2 colon = system: KM20L2 colon
LOX IMVI melanoma = system: LOX IMVI melanoma
LXFL 529 NSCLC = system: LXFL 529 NSCLC
M14 melanoma = system: M14 melanoma
M19-MEL melanoma = system: M19-MEL melanoma
MALME-3M melanoma = system: MALME-3M melanoma
MDA-MB-231 breast = system: MDA-MB-231 breast
MDA-MB-435 = system: MDA-MB-435
MDA-N = system: MDA-N
MOLT-4 leukemia = system: MOLT-4 leukemia
NCI-H226 lung = system: NCI-H226 lung
NCI-H23 lung = system: NCI-H23 lung
NCI-H460 lung = system: NCI-H460 lung
NCI-H522 lung = system: NCI-H522 lung
NCI/ADR-RES ovarian = system: NCI/ADR-RES ovarian
OVCAR-3 ovarian = system: OVCAR-3 ovarian
OVCAR-4 ovarian = system: OVCAR-4 ovarian
OVCAR-5 ovarian = system: OVCAR-5 ovarian
OVCAR-8 ovarian = system: OVCAR-8 ovarian
PC-3 prostate = system: PC-3 prostate
RPMI-8226 leukemia = system: RPMI-8226 leukemia
RXF 393 renal = system: RXF 393 renal
RXF-631 renal = system: RXF-631 renal
SF-268 CNS = system: SF-268 CNS
SF-295 CNS = system: SF-295 CNS
SF-539 CNS = system: SF-539 CNS
SK-MEL-2 melanoma = system: SK-MEL-2 melanoma
SK-MEL-28 melanoma = system: SK-MEL-28 melanoma
SK-MEL-5 melanoma = system: SK-MEL-5 melanoma
SK-OV-3 ovarian = system: SK-OV-3 ovarian
SN12C renal = system: SN12C renal
SNB-19 CNS = system: SNB-19 CNS
SNB-75 CNS = system: SNB-75 CNS
SNB-78 CNS = system: SNB-78 CNS
SR leukemia = system: SR leukemia
SW-620 colon = system: SW-620 colon
T-47D breast = system: T-47D breast
TK-10 renal = system: TK-10 renal
U251 CNS = system: U251 CNS
UACC-257 melanoma = system: UACC-257 melanoma
UACC-62 melanoma = system: UACC-62 melanoma
UO-31 renal = system: UO-31 renal
XF 498 CNS = system: XF 498 CNS

In the case of `Nc1ccc(S(=O)(=O)Nc2cnc3ccccc3n2)cc1`, the TGI (786-0 renal) is reported as > 100 µM, the TGI (A498 renal) is reported as > 100 µM and the TGI (A549 NSCLC) is reported as > 100 µM. For the same compound, the TGI (ACHN renal) was > 100 µM, the TGI (BT-549 breast) was > 100 µM and the TGI (CAKI-1 renal) was > 100 µM. For the same compound, the TGI (CCRF-CEM leukemia) was > 100 µM, the TGI (COLO 205 colon) was > 100 µM and the TGI (DLD-1 colon) was > 100 µM. The TGI (DMS 114 small cell lung) was > 100 µM, the TGI (DMS 273 small cell lung) was > 100 µM and the TGI (DU-145 prostate) was > 100 µM. For the same compound, the TGI (EKVX NSCLC) was > 100 µM, the TGI (HCC-2998 colon) was > 100 µM and the TGI (HCT-116 colon) was > 100 µM. For the same compound, the TGI (HCT-15 colon) was > 100 µM, the TGI (HL-60(TB) leukemia) was > 100 µM and the TGI (HOP-18 NSCLC) was > 100 µM. For the same compound, the TGI (HOP-62 NSCLC) was > 100 µM, the TGI (HOP-92 NSCLC) was > 100 µM and the TGI (HS 578T breast) was 35.3 µM. The TGI (HT29 colon) was > 100 µM, the TGI (IGROV1 ovarian) was > 100 µM and the TGI (K-562 leukemia) was > 100 µM. For the same compound, the TGI (KM12 colon) was > 100 µM, the TGI (KM20L2 colon) was > 100 µM and the TGI (LOX IMVI melanoma) was > 100 µM. The TGI (LXFL 529 NSCLC) was > 100 µM, the TGI (M14 melanoma) was > 100 µM and the TGI (M19-MEL melanoma) was > 100 µM. The TGI (MALME-3M melanoma) was > 100 µM, the TGI (MDA-MB-231 breast) was > 100 µM and the TGI (MDA-MB-435) was > 100 µM. For the same compound, the TGI (MDA-N) was > 100 µM, the TGI (MOLT-4 leukemia) was > 100 µM and the TGI (NCI-H226 lung) was > 100 µM. The TGI (NCI-H23 lung) was > 100 µM, the TGI (NCI-H460 lung) was > 100 µM and the TGI (NCI-H522 lung) was > 100 µM. For the same compound, the TGI (NCI/ADR-RES ovarian) was > 100 µM, the TGI (OVCAR-3 ovarian) was > 100 µM and the TGI (OVCAR-4 ovarian) was > 100 µM. For the same compound, the TGI (OVCAR-5 ovarian) was > 100 µM, the TGI (OVCAR-8 ovarian) was > 100 µM and the TGI (PC-3 prostate) was > 100 µM. For the same compound, the TGI (RPMI-8226 leukemia) was > 100 µM, the TGI (RXF 393 renal) was > 100 µM and the TGI (RXF-631 renal) was > 100 µM. The TGI (SF-268 CNS) was > 100 µM, the TGI (SF-295 CNS) was > 100 µM and the TGI (SF-539 CNS) was > 100 µM. For the same compound, the TGI (SK-MEL-2 melanoma) was > 100 µM, the TGI (SK-MEL-28 melanoma) was > 100 µM and the TGI (SK-MEL-5 melanoma) was > 100 µM. The TGI (SK-OV-3 ovarian) was > 100 µM, the TGI (SN12C renal) was > 100 µM and the TGI (SNB-19 CNS) was > 100 µM. The TGI (SNB-75 CNS) was > 100 µM, the TGI (SNB-78 CNS) was > 100 µM and the TGI (SR leukemia) was > 100 µM. The TGI (SW-620 colon) was > 100 µM, the TGI (T-47D breast) was > 100 µM and the TGI (TK-10 renal) was > 100 µM. The TGI (U251 CNS) was > 100 µM, the TGI (UACC-257 melanoma) was > 100 µM and the TGI (UACC-62 melanoma) was > 100 µM. The TGI (UO-31 renal) was > 100 µM and the TGI (XF 498 CNS) was > 100 µM.

For `NCCc1ccc2oc3cc(=O)c4ccccc4c-3nc2c1`, the TGI (786-0 renal) was 4.89 µM, the TGI (A498 renal) was 26.3 µM and the TGI (A549 NSCLC) was 2.18 µM. For the same compound, the TGI (ACHN renal) was 12 µM, the TGI (CAKI-1 renal) was 24 µM and the TGI (CCRF-CEM leukemia) was 4.49 µM. For the same compound, the TGI (COLO 205 colon) was 1.81 µM, the TGI (DLD-1 colon) was 9.34 µM and the TGI (DMS 114 small cell lung) was 2.85 µM. It also gave a TGI (DMS 273 small cell lung) of 3.11 µM, a TGI (EKVX NSCLC) of 25.1 µM and a TGI (HCC-2998 colon) of 6.78 µM. For the same compound, the TGI (HCT-116 colon) was 2.87 µM, the TGI (HCT-15 colon) was 5.01 µM and the TGI (HL-60(TB) leukemia) was 3.42 µM. For the same compound, the TGI (HOP-18 NSCLC) was 4.67 µM, the TGI (HOP-62 NSCLC) was 10.3 µM and the TGI (HOP-92 NSCLC) was 21.6 µM. For the same compound, the TGI (HT29 colon) was 4.35 µM, the TGI (IGROV1 ovarian) was 15.5 µM and the TGI (K-562 leukemia) was 6.95 µM. For the same compound, the TGI (KM12 colon) was 8.35 µM, the TGI (KM20L2 colon) was 9.12 µM and the TGI (LOX IMVI melanoma) was 4.42 µM. It also gave a TGI (LXFL 529 NSCLC) of 13.4 µM, a TGI (M14 melanoma) of 4.18 µM and a TGI (M19-MEL melanoma) of 0.894 µM. The TGI (MALME-3M melanoma) was 4.37 µM, the TGI (MOLT-4 leukemia) was 5.52 µM and the TGI (NCI-H226 lung) was 17.5 µM. The TGI (NCI-H23 lung) was 2.39 µM, the TGI (NCI-H460 lung) was 2.76 µM and the TGI (NCI-H522 lung) was 7.66 µM. The TGI (OVCAR-3 ovarian) was 8.12 µM, the TGI (OVCAR-4 ovarian) was 15.8 µM and the TGI (OVCAR-5 ovarian) was 15.4 µM. It also gave a TGI (OVCAR-8 ovarian) of 10.6 µM, a TGI (RPMI-8226 leukemia) of 23.2 µM and a TGI (RXF 393 renal) of 9.94 µM. The TGI (RXF-631 renal) was 8.88 µM, the TGI (SF-268 CNS) was 15.4 µM and the TGI (SF-295 CNS) was 9.48 µM. It also gave a TGI (SF-539 CNS) of 6.35 µM, a TGI (SK-MEL-2 melanoma) of 5.16 µM and a TGI (SK-MEL-28 melanoma) of 10.7 µM. It also gave a TGI (SK-MEL-5 melanoma) of 2.13 µM, a TGI (SK-OV-3 ovarian) of 24.4 µM and a TGI (SN12C renal) of 7.22 µM. The TGI (SNB-19 CNS) was 11 µM, the TGI (SNB-75 CNS) was 6.06 µM and the TGI (SNB-78 CNS) was 23.3 µM. It also gave a TGI (SR leukemia) of 4.67 µM, a TGI (SW-620 colon) of 5.95 µM and a TGI (TK-10 renal) of 27.3 µM. The TGI (U251 CNS) was 10.6 µM, the TGI (UACC-257 melanoma) was 7.4 µM and the TGI (UACC-62 melanoma) was 8.58 µM. It also gave a TGI (UO-31 renal) of 9.37 µM and a TGI (XF 498 CNS) of 7.01 µM.
